Results from patent US11759435B2, “Dihydrochalcone derivatives influencing inflammatory states” (SYMRISE AG, priority 2016, dated 2023).

Tested on: IL-8 release by HGF-1 cells
Assay: Anti-inflammatory action in HGF-1 cells: IL-8 release after PG-LPS stimulation (Example TS1)
Assay type: cell-based
Settings: Homo sapiens, co-incubation with 10 μg/ml PG-LPS, 6 h, % IL-8 release vs PG-LPS control, read-out: IL-8 T/C [%]
Protocol: Anti-inflammatory action in human gingival fibroblastic cells (HGF-1)
DMEM containing 10% FBS, 1% penicillin/streptomycin and 4% glutamine was used as the medium. For determination of the anti-inflammatory action the cells were incubated with 10 μg/ml PG-LPS for 6 hrs. […] In each case 4 samples with two technical replicates were measured. In addition to this control the cells were co-incubated with
(a) 10 μg/ml PG-LPS and also with
After incubation the cell culture medium was transferred into an Eppendorf reaction vessel and at 4° C. for 10 min subjected to centrifugation (1000×g) in order to separate the cell debris. The supernatant was stored at −80° C. until analysis.

O=C(CCc1ccc(O)cc1)c1c(O)cc(O)cc1O [Compound 4]
activity at 1 µM (HGF1, 1 μM test compound): 106% | activity at 100 µM (HGF1, 100 μM test compound): 50%
